Source: patent publication US20070053942A1, “Disinfectant and/or bactericidal aqueous compositions” (priority 2003, published 2007)
Structures can show the parent of a compound that is named as a salt.

Test: solubility in water
Type: physicochemical

CCCCCCCCNC(=N)NC(=N)NCc1ccc(Cl)c(Cl)c1 [olanexidine hydrochloride, 1-(3,4-dichlorobenzyl)-5-octylbiguanide]
solubility (in water) of olanexidine hydrochloride alone (at 0° C.): 0.02% | solubility in water (at 0° C.): 0.02 W/V % | Solubility (at 25° C., water, pH adjusted to 6): 0.05 W/V %
